Measurements as given in PMC10145310, “Optimization of Ultrasonic-Assisted Extraction of α-Glucosidase Inhibitors from Dryopteris crassirhizoma Using Artificial Neural Network and Response Surface Methodology” (Metabolites, 2023).

How the values were obtained:
RAW264.7 cells = test system: RAW264.7 cells; design: method as in PMID 34971945; details: RAW264.7 cells induced with lipopolysaccharide; cited from earlier work
α-glucosidase = target: T1, α-glucosidase (Saccharomyces cerevisiae, UniProt P53341); test: α-glucosidase inhibition assay (4-nitrophenyl-D-glucopyranoside substrate, 405 nm); assay type: biochemical; details: for inhibition at 100 µM: compound at 100 µM, mean ± SEM, triplicate
T1 construct: purchased Merck (Germany) G5003
Experimental: The α-glucosidase assay was performed as previously described. First, 130 μL of α-glucosidase (0.16 unit/mL) in 0.1 mM phosphate buffer (pH 6.8) was added to a 96-well plate with 20 μL of test compounds dissolved in dimethylsulfoxide. Then, 50 μL of 1 mM substrate (4-nitrophenyl-D-glucopyranoside) in the buffer was added to the mixture. The intensity of p-nitrophenol converted from 4-nitrophenyl-D-glucopyranoside by α-glucosidase was measured after […] at 405 nm using Infinite 200 PRO spectrophotometer (Tecan, Zürich, Switzerland). (1) Inhibitory activity rate (%)=[(ΔC−ΔS)/ΔC]×100 where ΔC and ΔS are the intensity of control and inhibitor after 20 min, respectively. […] The inhibitory effect was elucidated via triplicate independent experiments. […] Statistical differences were investigated using one-way ANOVA and Duncanʹs test with a p-value < 0.05. SigmaPlot 10.0 (Systat Software Inc., San Jose, CA, USA) was used to analyze the inhibition results.

SARS-CoV-2 = test system: SARS-CoV-2; design: method as in PMID 35214108; details: Vero cells, immunofluorescence-based antiviral assays; cited from earlier work
PTP1B = test system: PTP1B; design: method as in PMID 34416263; details: previous studies; cited from earlier work
β-glucuronidase = target: β-glucuronidase; design: method as in PMID 36295840; details: previous studies; cited from earlier work
influenza A virus H1N1 = test system: influenza A virus H1N1; design: method as in PMID 34971945; details: cited from earlier work
[1] = test system: platelet aggregation induced by collagen; design: method as in PMID 31200488; details: cited from earlier work
[2] = test system: platelet aggregation induced by arachidonic acid; design: method as in PMID 31200488; details: cited from earlier work

T1 sequence (P53341 whole entry): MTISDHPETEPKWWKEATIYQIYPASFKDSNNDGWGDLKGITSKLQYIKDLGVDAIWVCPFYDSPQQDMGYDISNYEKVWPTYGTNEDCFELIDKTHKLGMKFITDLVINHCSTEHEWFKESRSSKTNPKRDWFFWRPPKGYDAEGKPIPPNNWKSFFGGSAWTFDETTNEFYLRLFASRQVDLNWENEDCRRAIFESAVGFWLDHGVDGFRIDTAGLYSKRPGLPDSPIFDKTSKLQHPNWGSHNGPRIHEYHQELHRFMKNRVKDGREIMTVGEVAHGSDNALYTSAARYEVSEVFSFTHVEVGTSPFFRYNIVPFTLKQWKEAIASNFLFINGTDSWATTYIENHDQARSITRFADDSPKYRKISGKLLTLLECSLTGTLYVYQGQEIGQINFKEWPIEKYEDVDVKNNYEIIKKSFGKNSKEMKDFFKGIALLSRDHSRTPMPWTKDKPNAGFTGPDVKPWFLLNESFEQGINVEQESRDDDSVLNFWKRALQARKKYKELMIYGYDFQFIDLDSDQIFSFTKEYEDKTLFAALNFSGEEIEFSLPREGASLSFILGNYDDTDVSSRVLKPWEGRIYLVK

Molecule: 3″-epi-dryoptol G
- effect on production of nitric oxide and secretion of IL-1β and IL-18 (RAW264.7 cells): significant inhibitory effects

Molecule: CCC(=O)c1c(O)c(C)c(O)c(CC2=C(O)C(C)(C)C(O)=C(C(C)=O)C2=O)c1O [Compound 1, flavaspidic acid AP]
- inhibition at 100 µM (α-glucosidase): < 50%

Molecule: dryocrassin ABBA
- inhibitory activity against SARS-CoV-2 infection (SARS-CoV-2): dose-dependent inhibitory activity

Molecule: CCCC(=O)c1c(O)cc(O)c(Cc2c(O)c(CC3=C(O)C(C)(C)C(O)=C(C(C)=O)C3=O)c(O)c(C(=O)CCC)c2O)c1O [Compound 2, nortrisflavaspidic acid ABB]
- IC50 (α-glucosidase): 34 ± 0.14 µM
- inhibition at 100 µM (α-glucosidase): > 50%
- IC50 (PTP1B): 1.19 ± 0.13 µM
- IC50 (β-glucuronidase): 8 ± 1.8 µM

Molecule: filixic acid ABA
- inhibitory activity against SARS-CoV-2 infection (SARS-CoV-2): dose-dependent inhibitory activity
- antiviral effect against influenza A virus H1N1 (influenza A virus H1N1): responsible for the antiviral effect

Molecule: CCCC(=O)c1c(O)cc(O)c(C)c1O [butyryl-3-methylphloroglucinol]
- inhibition of platelet aggregation, ratio [1]: 92.36%
- inhibition of platelet aggregation, ratio [2]: 89.51%

Molecule: dryoptol G
- effect on production of nitric oxide and secretion of IL-1β and IL-18 (RAW264.7 cells): significant inhibitory effects

Molecule: C[C@H]1O[C@H](O[C@H]2[C@H](O)[C@@H](O)[C@@H](O[C@H]3[C@H](O)[C@@H](O)C(O)O[C@@H]3CO)O[C@@H]2CO)[C@H](O)[C@@H](O)[C@@H]1N[C@H]1C=C(CO)[C@@H](O)[C@H](O)[C@H]1O (stereo partly shown) [Acarbose, acarbose]
- inhibition at 100 µM (α-glucosidase): 21.7 ± 1.43%
